PubChem BioAssay (NCI)
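Each compound was tested at five concentrations against cells in 96-well plates for 48 hours. GI50 is the concentration that inhibits growth by half. The concentration for full growth arrest is given as TGI.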

Columns and labels:
Assay in all cases: NCI anticancer screen, dose series, 48 h; in the data active = GI50 below about 0.43 µM; inactive = the rest
[1] = tested on: NCI-H23 lung
[2] = tested on: NCI-H226 lung
[3] = tested on: IGROV1 ovarian
[4] = tested on: HOP-92 NSCLC
[5] = tested on: NCI-H522 lung
[6] = tested on: NCI/ADR-RES ovarian
[7] = tested on: OVCAR-4 ovarian
[8] = tested on: DU-145 prostate
[9] = tested on: TK-10 renal
[10] = tested on: MDA-MB-435
[11] = tested on: BT-549 breast
[12] = tested on: PC-3 prostate
[13] = tested on: SNB-75 CNS
[14] = tested on: SN12C renal
[15] = tested on: LOX IMVI melanoma
[16] = tested on: SW-620 colon
[17] = tested on: COLO 205 colon
[18] = tested on: U251 CNS
[19] = tested on: SK-MEL-28 melanoma
[20] = tested on: UO-31 renal
[21] = tested on: SF-295 CNS
[22] = tested on: SK-OV-3 ovarian
[23] = tested on: OVCAR-5 ovarian
[24] = tested on: SF-268 CNS
[25] = tested on: OVCAR-3 ovarian
[26] = tested on: UACC-62 melanoma
[27] = tested on: MDA-MB-231 breast
[28] = tested on: HT29 colon
[29] = tested on: HOP-62 NSCLC
[30] = tested on: ACHN renal
[31] = tested on: OVCAR-8 ovarian
[32] = tested on: KM12 colon
[33] = tested on: MCF7 breast
[34] = tested on: SK-MEL-2 melanoma
[35] = tested on: MALME-3M melanoma
[36] = tested on: RXF 393 renal
[37] = tested on: HCC-2998 colon
[38] = tested on: HS 578T breast
[39] = tested on: 786-0 renal
[40] = tested on: HL-60(TB) leukemia
[41] = tested on: RPMI-8226 leukemia
[42] = tested on: SF-539 CNS
[43] = tested on: K-562 leukemia
[44] = tested on: CCRF-CEM leukemia
[45] = tested on: SR leukemia
[46] = tested on: T-47D breast
[47] = tested on: HCT-116 colon
[48] = tested on: SNB-19 CNS
[49] = tested on: M14 melanoma
[50] = tested on: UACC-257 melanoma
[51] = tested on: MOLT-4 leukemia
[52] = tested on: NCI-H460 lung
[53] = tested on: HCT-15 colon
[54] = tested on: A549 NSCLC
[55] = tested on: CAKI-1 renal
[56] = tested on: SK-MEL-5 melanoma
[57] = tested on: A498 renal

CC(=O)N1CCC(Nc2ncc3cc(Oc4ccc(F)cc4F)c(=O)n(C)c3n2)CC1
> 25 µM: TGI [1] | TGI [2] | TGI [3] | TGI [4] | TGI [6] | TGI [7] | TGI [8] | TGI [9] | TGI [10] | TGI [11] | TGI [12] | TGI [13] | TGI [14] | TGI [15] | TGI [16] | TGI [17] | TGI [18] | TGI [19] | TGI [21] | TGI [22] | TGI [23] | TGI [24] | TGI [25] | TGI [26] | TGI [27] | TGI [28] | TGI [29] | TGI [31] | TGI [32] | TGI [33] | TGI [34] | TGI [35] | TGI [36] | TGI [37] | TGI [38] | TGI [39] | TGI [40] | TGI [41] | TGI [42] | TGI [43] | TGI [44] | TGI [45] | TGI [46] | TGI [47] | TGI [48] | TGI [49] | TGI [50] | TGI [51] | TGI [52] | TGI [53] | TGI [54] | TGI [55] | TGI [56] | TGI [57]
> 25000 nM: TGI [5] | TGI [20] | TGI [30]
inactive: GI50 [1] > 25 µM | GI50 [2] > 25 µM | GI50 [3] > 25000 nM | GI50 [4] 2450 nM | GI50 [5] > 25000 nM | GI50 [6] > 25 µM | GI50 [7] > 18800 nM | GI50 [8] > 25 µM | GI50 [9] > 25000 nM | GI50 [10] > 25 µM | GI50 [11] > 25 µM | GI50 [12] > 25 µM | GI50 [13] > 22 µM | GI50 [14] > 25 µM | GI50 [15] > 25 µM | GI50 [16] > 25000 nM | GI50 [17] > 25000 nM | GI50 [18] > 25 µM | GI50 [19] > 25 µM | GI50 [20] > 17700 nM | GI50 [21] > 25 µM | GI50 [22] > 25000 nM | GI50 [23] > 25000 nM | GI50 [24] > 25 µM | GI50 [25] > 25000 nM | GI50 [26] > 25 µM | GI50 [27] > 25 µM | GI50 [28] > 25000 nM | GI50 [29] > 25 µM | GI50 [30] > 25000 nM | GI50 [31] > 25000 nM | GI50 [32] > 25 µM | GI50 [33] > 25000 nM | GI50 [34] > 25 µM | GI50 [35] > 25000 nM | GI50 [36] > 16.9 µM | GI50 [37] > 25 µM | GI50 [38] 8.69 µM | GI50 [39] > 25 µM | GI50 [40] > 25 µM | GI50 [41] > 25000 nM | GI50 [42] > 25 µM | GI50 [43] > 25000 nM | GI50 [44] > 25000 nM | GI50 [45] > 25000 nM | GI50 [46] > 25000 nM | GI50 [47] > 25000 nM | GI50 [48] > 25 µM | GI50 [49] > 25 µM | GI50 [50] > 25 µM | GI50 [51] > 25 µM | GI50 [52] > 25 µM | GI50 [53] > 25000 nM | GI50 [54] > 25 µM | GI50 [55] > 25000 nM | GI50 [56] > 25 µM | GI50 [57] 9.26 µM

Cc1cc(=O)n2nnc3c4ccccc4ccc3n12
3.27 µM: TGI [7]
2720 nM: TGI [20]
7.85 µM: TGI [43]
17.7 µM: TGI [12]
23.7 µM: TGI [27]
3.2 µM: TGI [9]
20.3 µM: TGI [22]
22.8 µM: TGI [36]
43.9 µM: TGI [6]
21.5 µM: TGI [14]
27.1 µM: TGI [2] | TGI [19] | TGI [49]
3.46 µM: TGI [47]
10.5 µM: TGI [33]
3.37 µM: TGI [25]
23.4 µM: TGI [8]
10.4 µM: TGI [53]
18.6 µM: TGI [26]
23.1 µM: TGI [24]
30.4 µM: TGI [52]
16.7 µM: TGI [42]
19.5 µM: TGI [51]
16.2 µM: TGI [15]
8.19 µM: TGI [35]
30.6 µM: TGI [34]
29.9 µM: TGI [10] | TGI [13]
25.4 µM: TGI [48]
30.9 µM: TGI [37]
37.2 µM: TGI [40]
5.57 µM: TGI [28]
4.52 µM: TGI [3]
4.03 µM: TGI [41]
20.6 µM: TGI [39]
15 µM: TGI [4]
3.33 µM: TGI [55]
49 µM: TGI [38]
inactive: GI50 [1] 12.4 µM | GI50 [2] 7.64 µM | GI50 [3] 1960 nM | GI50 [4] 942 nM | GI50 [5] 1540 nM | GI50 [6] 3.87 µM | GI50 [7] 1500 nM | GI50 [8] 11.3 µM | GI50 [9] 1680 nM | GI50 [10] 14.3 µM | GI50 [11] 7.76 µM | GI50 [12] 4.22 µM | GI50 [13] 14.9 µM | GI50 [14] 7.34 µM | GI50 [15] 4.42 µM | GI50 [16] 1630 nM | GI50 [17] 2970 nM | GI50 [18] 14.9 µM | GI50 [19] 13.9 µM | GI50 [20] 1200 nM | GI50 [21] 14.8 µM | GI50 [22] 2720 nM | GI50 [23] 1840 nM | GI50 [24] 11 µM | GI50 [25] 1790 nM | GI50 [26] 5.3 µM | GI50 [27] 11.4 µM | GI50 [28] 2360 nM | GI50 [29] 6.11 µM | GI50 [30] 1580 nM | GI50 [31] 2030 nM | GI50 [32] 10.6 µM | GI50 [33] 2860 nM | GI50 [34] 16.5 µM | GI50 [35] 2080 nM | GI50 [36] 10.8 µM | GI50 [37] 16.5 µM | GI50 [38] 15.2 µM | GI50 [39] 8.25 µM | GI50 [40] 11.5 µM | GI50 [41] 959 nM | GI50 [42] 3.5 µM | GI50 [43] 1800 nM | GI50 [44] 1060 nM | GI50 [45] 2280 nM | GI50 [46] 1380 nM | GI50 [47] 1850 nM | GI50 [48] 12.8 µM | GI50 [49] 13.5 µM | GI50 [50] 13 µM | GI50 [51] 3.39 µM | GI50 [52] 13.9 µM | GI50 [53] 2860 nM | GI50 [54] 10.8 µM | GI50 [55] 1640 nM | GI50 [56] 12.8 µM | GI50 [57] 11.2 µM
2970 nM: TGI [30]
27.9 µM: TGI [1]
3.91 µM: TGI [44]
28.1 µM: TGI [18]
20.9 µM: TGI [29]
14.7 µM: TGI [23]
30.2 µM: TGI [21]
25.7 µM: TGI [50] | TGI [56]
8.77 µM: TGI [17]
3.14 µM: TGI [46]
23.8 µM: TGI [54]
3.11 µM: TGI [16]
22.6 µM: TGI [32]
13.7 µM: TGI [45]
23.2 µM: TGI [57]
2930 nM: TGI [5]
21.1 µM: TGI [11]
6.97 µM: TGI [31]
